Data on four compounds can be found in paper PMC3299889 (Analytical Biochemistry, 2012).

Targets include HCV NS3/4A (Hepatitis C virus genotype 1a, UniProt P27958); SARS-CoV 3CLpro (Severe acute respiratory syndrome coronavirus, UniProt P0C6X7); SARS-CoV PLpro (Severe acute respiratory syndrome coronavirus, UniProt P0C6X7).
What all share (assay type): biochemical

Chain of HCV NS3/4A (P27958 1027-1657): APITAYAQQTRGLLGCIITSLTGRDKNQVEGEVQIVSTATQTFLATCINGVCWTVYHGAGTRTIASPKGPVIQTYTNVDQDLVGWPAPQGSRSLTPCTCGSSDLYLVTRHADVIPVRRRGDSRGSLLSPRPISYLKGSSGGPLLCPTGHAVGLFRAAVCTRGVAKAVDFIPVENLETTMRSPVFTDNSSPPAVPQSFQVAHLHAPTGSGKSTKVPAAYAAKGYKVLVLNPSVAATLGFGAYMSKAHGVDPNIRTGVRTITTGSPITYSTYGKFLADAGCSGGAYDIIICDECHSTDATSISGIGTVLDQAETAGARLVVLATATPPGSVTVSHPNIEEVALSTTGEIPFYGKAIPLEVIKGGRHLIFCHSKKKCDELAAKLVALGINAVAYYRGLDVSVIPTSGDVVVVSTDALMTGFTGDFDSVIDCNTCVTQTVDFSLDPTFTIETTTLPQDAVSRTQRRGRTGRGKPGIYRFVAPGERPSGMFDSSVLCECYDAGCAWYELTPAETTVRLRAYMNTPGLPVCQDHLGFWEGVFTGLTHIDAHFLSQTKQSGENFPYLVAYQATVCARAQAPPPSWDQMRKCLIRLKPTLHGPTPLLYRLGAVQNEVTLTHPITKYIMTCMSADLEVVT
Chain of HCV NS3/4A (P27958 1658-1711 partner limits assumed): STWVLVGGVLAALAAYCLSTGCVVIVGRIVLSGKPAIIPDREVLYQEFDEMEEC

On to `N[C@@H](CCC(=O)N[C@@H](CS)C(=O)NCC(=O)O)C(=O)O` [GSH, reduced glutathione], for which, at HCV NS3/4A, the Kcat/KM ratio was determined as 1.5 and the Vmax is on record as 151 ± 8 RFU/10 min. At SARS-CoV 3CLpro, the Kcat/KM ratio was determined as 1.2, the Km was 16.1 ± 0.8 µM and the Vmax is on record as 516 ± 9 RFU/10 min. For the same compound, at SARS-CoV PLpro, the Kcat/KM ratio stood at 1.0, the Vmax was found to be 449 ± 14 RFU/10 min and the “increase of KM” value is reported as 1.5 fold.
In the case of `O=C(O)CCP(CCC(=O)O)CCC(=O)O` [TCEP, tris(2-carboxyethyl)phosphine], at HCV NS3/4A, the Kcat/KM ratio turned out to be 0.5 and the Vmax turned out to be 75 ± 15 RFU/10 min. For the same compound, the Vmax on SARS-CoV 3CLpro is on record as 472 ± 18 RFU/10 min. In addition, on SARS-CoV PLpro, the Vmax worked out at 441 ± 41 RFU/10 min and the “increase of KM” value was 2.5 fold.
As for `OCCS` [β-MCE, β-mercaptoethanol], the Kcat/KM ratio on HCV NS3/4A came to 1.4; at SARS-CoV 3CLpro it was 1.2; on SARS-CoV PLpro, 1.2. For the same compound, the figures for the Km on HCV NS3/4A, at SARS-CoV 3CLpro and on SARS-CoV PLpro were 2.5 ± 0.1 µM, 14.8 ± 1.2 µM and 117 ± 7 µM, respectively. Moreover, the Vmax at HCV NS3/4A came to 161 ± 8 RFU/10 min; on SARS-CoV 3CLpro, 453 ± 24 RFU/10 min; on SARS-CoV PLpro, 438 ± 30 RFU/10 min.
Regarding `O[C@@H](CS)[C@@H](O)CS` (racemic) [DTT, dithiothreitol], on HCV NS3/4A, the Vmax came to 181 ± 21 RFU/10 min and the “change of enzyme efficiency (Kcat/KM)” value stood at 1.6 fold. Besides, the Vmax at SARS-CoV 3CLpro is 435 ± 12 RFU/10 min. Also, on SARS-CoV PLpro, the Vmax came to 813 ± 36 RFU/10 min and the “increase of KM” value is 4 fold.
